In ChEMBL document CHEMBL3994617, “2,8-bis(trifluoromethyl)quinoline analogs show improved anti-Zika virus activity, compared to mefloquine” (Eur J Med Chem, 2017):

Experiments:
Zika virus [1] = experiment: Antiviral activity against Zika virus infected in African green monkey Vero cells assessed as inhibition of viral RNA replication at 10 uM after 24 hrs by RT-PCR method relative to control; format: functional
[2] = Cytotoxicity against African green monkey Vero cells assessed as reduction in cell viability after 72 hrs by XTT assay; format: cell-based; conditions: chlorocebus sabaeus
[3] = Selectivity index, ratio of CC50 for African green monkey Vero cells to EC50 for Zika virus infected in African green monkey Vero cells; format: toxicity; conditions: read-out: Ratio CC50/EC50
Zika virus [4] = experiment: Antiviral activity against Zika virus infected in African green monkey Vero cells assessed as inhibition of viral RNA replication after 24 hrs by RT-PCR method; format: functional
Zika virus [5] = experiment: Potency index, ratio of mefloquine EC50 to test compound EC50 for Zika virus infected in African green monkey Vero cells; format: functional
Zika virus [6] = experiment: Potency index, ratio of chloroquine EC50 to test compound EC50 for Zika virus infected in African green monkey Vero cells; format: functional
Vero = experiment: Cytotoxicity against African green monkey Vero cells assessed as reduction in cell viability at 10 uM after 72 hrs by XTT assay relative to control; format: cell-based; conditions: chlorocebus sabaeus

SMILES	EC50 (Zika virus [4]) [nM]	inhibition at 10 µM (Zika virus [1]) [%]	CC50 at 72 h [2] [µM]	selectivity ratio [3]	Ratio EC50 (Zika virus [5])	Ratio EC50 (Zika virus [6])	Activity (Vero) [%]
CCCCNc1cc(C(F)(F)F)nc2c(C(F)(F)F)cccc12		58.8					
COc1cc(C(F)(F)F)nc2c(C(F)(F)F)cccc12		12					
FC(F)(F)c1cc(NCCCl)c2cccc(C(F)(F)F)c2n1	1400	86.9	316	225	3		
CCN(CC)CCCC(C)Nc1ccnc2cc(Cl)ccc12 (stereo not given) [CHLOROQUINE]	12000		412				
NCCCCCCCCCCNc1cc(C(F)(F)F)nc2c(C(F)(F)F)cccc12							> 80

The next lines start with results.

EC50 (Zika virus [4]) [nM]	SMILES	inhibition at 10 µM (Zika virus [1]) [%]	CC50 at 72 h [2] [µM]	selectivity ratio [3]	Ratio EC50 (Zika virus [5])	Ratio EC50 (Zika virus [6])	Activity (Vero) [%]
2000	NCCCNc1cc(C(F)(F)F)nc2c(C(F)(F)F)cccc12	79.9	287	143	2		
3600	O[C@@H](c1cc(C(F)(F)F)nc2c(C(F)(F)F)cccc12)[C@H]1CCCCN1 [(S,R)-MEFLOQUINE]	78.8	212	58		3	
800	OCCNc1cc(C(F)(F)F)nc2c(C(F)(F)F)cccc12	74.4	189	236	5		
800	NCCNc1cc(C(F)(F)F)nc2c(C(F)(F)F)cccc12	78.6	195	243	5		
